From PubChem BioAssay (NCI)
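A five-concentration, 48-hour dose response in 96-well plates underlies each endpoint, interpolated linearly between surrounding concentrations. GI50: concentration for 50% inhibition of growth. TGI denotes the concentration required for complete inhibition of growth.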

Key:
Assay in all cases: NCI anticancer screen, dose series, 48 h
K-562 leukemia = test system: K-562 leukemia
NCI-H226 lung = test system: NCI-H226 lung
SF-539 CNS = test system: SF-539 CNS
UACC-62 melanoma = test system: UACC-62 melanoma
SR leukemia = test system: SR leukemia
A498 renal = test system: A498 renal
SN12C renal = test system: SN12C renal
SNB-75 CNS = test system: SNB-75 CNS
DU-145 prostate = test system: DU-145 prostate
NCI-H522 lung = test system: NCI-H522 lung
MDA-MB-435 = test system: MDA-MB-435
CAKI-1 renal = test system: CAKI-1 renal
HCT-15 colon = test system: HCT-15 colon
EKVX NSCLC = test system: EKVX NSCLC
UACC-257 melanoma = test system: UACC-257 melanoma
SK-OV-3 ovarian = test system: SK-OV-3 ovarian
HCT-116 colon = test system: HCT-116 colon
CCRF-CEM leukemia = test system: CCRF-CEM leukemia
RPMI-8226 leukemia = test system: RPMI-8226 leukemia
HL-60(TB) leukemia = test system: HL-60(TB) leukemia
PC-3 prostate = test system: PC-3 prostate
UO-31 renal = test system: UO-31 renal
IGROV1 ovarian = test system: IGROV1 ovarian
BT-549 breast = test system: BT-549 breast
SK-MEL-5 melanoma = test system: SK-MEL-5 melanoma
MDA-MB-231 breast = test system: MDA-MB-231 breast
786-0 renal = test system: 786-0 renal
HCC-2998 colon = test system: HCC-2998 colon
OVCAR-3 ovarian = test system: OVCAR-3 ovarian
RXF 393 renal = test system: RXF 393 renal
MALME-3M melanoma = test system: MALME-3M melanoma
SK-MEL-28 melanoma = test system: SK-MEL-28 melanoma
T-47D breast = test system: T-47D breast
NCI-H460 lung = test system: NCI-H460 lung
NCI/ADR-RES ovarian = test system: NCI/ADR-RES ovarian
HOP-62 NSCLC = test system: HOP-62 NSCLC
U251 CNS = test system: U251 CNS
MOLT-4 leukemia = test system: MOLT-4 leukemia
MCF7 breast = test system: MCF7 breast
SF-268 CNS = test system: SF-268 CNS
M14 melanoma = test system: M14 melanoma
HOP-92 NSCLC = test system: HOP-92 NSCLC
COLO 205 colon = test system: COLO 205 colon
TK-10 renal = test system: TK-10 renal
ACHN renal = test system: ACHN renal
SF-295 CNS = test system: SF-295 CNS
SW-620 colon = test system: SW-620 colon
LOX IMVI melanoma = test system: LOX IMVI melanoma
OVCAR-8 ovarian = test system: OVCAR-8 ovarian
NCI-H23 lung = test system: NCI-H23 lung
KM12 colon = test system: KM12 colon
OVCAR-5 ovarian = test system: OVCAR-5 ovarian
HT29 colon = test system: HT29 colon
HS 578T breast = test system: HS 578T breast
SNB-19 CNS = test system: SNB-19 CNS
A549 NSCLC = test system: A549 NSCLC
OVCAR-4 ovarian = test system: OVCAR-4 ovarian

CC(C)(C)c1ccc(OCCCCCCN2CCNCC2)cc1
GI50 (K-562 leukemia): 1.75 µM
TGI (K-562 leukemia): 4.48 µM
GI50 (NCI-H226 lung): 15.3 µM
TGI (NCI-H226 lung): 34.3 µM
GI50 (SF-539 CNS): 5.98 µM
TGI (SF-539 CNS): 20.6 µM
GI50 (UACC-62 melanoma): 2.33 µM
TGI (UACC-62 melanoma): 5.77 µM
GI50 (SR leukemia): 2.04 µM
TGI (SR leukemia): 5.85 µM
GI50 (A498 renal): 9.44 µM
TGI (A498 renal): 23.1 µM
GI50 (SN12C renal): 11.7 µM
TGI (SN12C renal): 27.8 µM
GI50 (SNB-75 CNS): 3.12 µM
TGI (SNB-75 CNS): 16 µM
GI50 (DU-145 prostate): 10.5 µM
TGI (DU-145 prostate): 23.2 µM
GI50 (NCI-H522 lung): 13.6 µM
TGI (NCI-H522 lung): 31.7 µM
GI50 (MDA-MB-435): 3.17 µM
TGI (MDA-MB-435): 11.9 µM
GI50 (CAKI-1 renal): 4.72 µM
TGI (CAKI-1 renal): 17 µM
GI50 (HCT-15 colon): 3.04 µM
TGI (HCT-15 colon): 10 µM
GI50 (EKVX NSCLC): 10.2 µM
TGI (EKVX NSCLC): 24.2 µM
GI50 (UACC-257 melanoma): 10.5 µM
TGI (UACC-257 melanoma): 22.9 µM
GI50 (SK-OV-3 ovarian): 10.9 µM
TGI (SK-OV-3 ovarian): 24.7 µM
GI50 (HCT-116 colon): 3.18 µM
TGI (HCT-116 colon): 13.9 µM
GI50 (CCRF-CEM leukemia): 2.88 µM
TGI (CCRF-CEM leukemia): 12 µM
GI50 (RPMI-8226 leukemia): 2.5 µM
TGI (RPMI-8226 leukemia): 6.46 µM
GI50 (HL-60(TB) leukemia): 1.98 µM
TGI (HL-60(TB) leukemia): 4.32 µM
GI50 (PC-3 prostate): 8.28 µM
TGI (PC-3 prostate): 24.4 µM
GI50 (UO-31 renal): 12.2 µM
TGI (UO-31 renal): 25.6 µM
GI50 (IGROV1 ovarian): 6.34 µM
TGI (IGROV1 ovarian): 22.6 µM
GI50 (BT-549 breast): 10.5 µM
TGI (BT-549 breast): 27.1 µM
GI50 (SK-MEL-5 melanoma): 1.87 µM
TGI (SK-MEL-5 melanoma): 3.49 µM
GI50 (MDA-MB-231 breast): 2.53 µM
TGI (MDA-MB-231 breast): 7.97 µM
GI50 (786-0 renal): 3.34 µM
TGI (786-0 renal): 11.6 µM
GI50 (HCC-2998 colon): 2.38 µM
TGI (HCC-2998 colon): 4.62 µM
GI50 (OVCAR-3 ovarian): 7.38 µM
TGI (OVCAR-3 ovarian): 20.8 µM
GI50 (RXF 393 renal): 1.91 µM
TGI (RXF 393 renal): 4.12 µM
GI50 (MALME-3M melanoma): 3.27 µM
TGI (MALME-3M melanoma): 13.1 µM
GI50 (SK-MEL-28 melanoma): 3.23 µM
TGI (SK-MEL-28 melanoma): 11.4 µM
GI50 (T-47D breast): 2.22 µM
TGI (T-47D breast): 5.94 µM
GI50 (NCI-H460 lung): 3.21 µM
TGI (NCI-H460 lung): 11.4 µM
GI50 (NCI/ADR-RES ovarian): 14.3 µM
TGI (NCI/ADR-RES ovarian): 33.7 µM
GI50 (HOP-62 NSCLC): 11 µM
TGI (HOP-62 NSCLC): 25.8 µM
GI50 (U251 CNS): 3.32 µM
TGI (U251 CNS): 13.2 µM
GI50 (MOLT-4 leukemia): 1.82 µM
TGI (MOLT-4 leukemia): 5.07 µM
GI50 (MCF7 breast): 3.03 µM
TGI (MCF7 breast): 10.3 µM
GI50 (SF-268 CNS): 10.7 µM
TGI (SF-268 CNS): 24.4 µM
GI50 (M14 melanoma): 3.22 µM
TGI (M14 melanoma): 13.5 µM
GI50 (HOP-92 NSCLC): 3.31 µM
TGI (HOP-92 NSCLC): 19.7 µM
GI50 (COLO 205 colon): 1.95 µM
TGI (COLO 205 colon): 4.09 µM
GI50 (TK-10 renal): 13.9 µM
TGI (TK-10 renal): 27.8 µM
GI50 (ACHN renal): 5.01 µM
TGI (ACHN renal): 17.5 µM
GI50 (SF-295 CNS): 8.82 µM
TGI (SF-295 CNS): 22.3 µM
GI50 (SW-620 colon): 2.14 µM
TGI (SW-620 colon): 5.19 µM
GI50 (LOX IMVI melanoma): 1.83 µM
TGI (LOX IMVI melanoma): 3.66 µM
GI50 (OVCAR-8 ovarian): 14.6 µM
TGI (OVCAR-8 ovarian): 33.5 µM
GI50 (NCI-H23 lung): 7.59 µM
TGI (NCI-H23 lung): 23 µM
GI50 (KM12 colon): 3.89 µM
TGI (KM12 colon): 13.8 µM
GI50 (OVCAR-5 ovarian): 13.7 µM
TGI (OVCAR-5 ovarian): 29.4 µM
GI50 (HT29 colon): 2.64 µM
TGI (HT29 colon): 10.5 µM
GI50 (HS 578T breast): 6.15 µM
TGI (HS 578T breast): 25.1 µM
GI50 (SNB-19 CNS): 8.06 µM
TGI (SNB-19 CNS): 24.4 µM
GI50 (A549 NSCLC): 6.95 µM
TGI (A549 NSCLC): 21.2 µM
GI50 (OVCAR-4 ovarian): 9.46 µM
TGI (OVCAR-4 ovarian): 23.9 µM
